According to paper PMC11111408, “Concurrent inhibition of oncogenic and wild-type RAS-GTP for cancer therapy” (Nature, 2024):

Tested on: PRISM DNA-barcoded human tumour cell lines
Assay: PRISM pooled cell viability assay;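 on PRISM AUC: 8 threefold dilutions from 10 µM with 5 days of exposure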
Format: cell-based
Parameters: AUC (PRISM viability) / AUC (PRISM): unit not given beside the values
Conditions: for AUC (PRISM viability): WT; for PRISM AUC: KRAS MUT
Method: Cells were then lysed in TCL mRNA lysis buffer, and then PCR with reverse transcription was performed. Detection of the barcodes and univariate and multivariate analysis was then performed as previously described. Data analysis is described in the Supplementary Methods. Up-to-date code for our analysis is at the github link: https://github.com/cmap/dockerized_mts.
For every gene with non-silent mutations in at least four cell-lines, we compared the AUC values between cells with and without those mutations using a t-test. This analysis was carried out for: (i) the full dataset; (ii) excluding cell lines with non-silent KRAS mutations; and (iii) excluding cell lines that have either KRAS or NRAS non-silent mutations.

Structure (SMILES): CCn1c(-c2cc(N3CCN(C4CC4)CC3)cnc2[C@H](C)OC)c2c3cc(ccc31)-c1csc(n1)C[C@H](NC(=O)[C@H]1[C@@H]3COC[C@@H]31)C(=O)N1CCC[C@H](N1)C(=O)OCC(C)(C)C2 [RMC-7977]
- AUC (PRISM viability) (MPP89_PLEURA): 0.9969
- AUC (PRISM viability) (MSTO211H_PLEURA): 0.3796
- AUC (PRISM viability) (NALM6_HAEMATOPOIETIC_AND_LYMPHOID_TISSUE): 0.7052
- AUC (PRISM viability) (NB1_AUTONOMIC_GANGLIA): 0.4921
- PRISM AUC (NCIH23_LUNG): 0.451
- AUC (PRISM viability) (NCIH28_PLEURA): 0.6741
- AUC (PRISM viability) (NCIH82_LUNG): 0.581
- AUC (PRISM viability) (NCIH196_LUNG): 0.9033
- AUC (PRISM viability) (NCIH226_LUNG): 0.6197
- AUC (PRISM viability) (NCIH292_LUNG): 0.4596
- AUC (PRISM viability) (NCIH322_LUNG): 0.4865
- PRISM AUC (NCIH358_LUNG): 0.1803
- PRISM AUC (NCIH441_LUNG): 0.3007
- AUC (PRISM viability) (NCIH446_LUNG): 0.8555
- AUC (PRISM viability) (NCIH508_LARGE_INTESTINE): 0.3599
- AUC (PRISM viability) (NCIH520_LUNG): 0.7662
- AUC (PRISM viability) (NCIH522_LUNG): 0.759
- AUC (PRISM viability) (NCIH524_LUNG): 0.7662
- AUC (PRISM viability) (NCIH596_LUNG): 0.5305
- PRISM AUC (NCIH647_LUNG): 0.7239
- AUC (PRISM viability) (NCIH661_LUNG): 0.7122
- PRISM AUC (NCIH727_LUNG): 0.5024
- PRISM AUC (NCIH747_LARGE_INTESTINE): 0.2108
- AUC (PRISM viability) (NCIH838_LUNG): 0.8166
- AUC (PRISM viability) (NCIH841_LUNG): 0.7846
- AUC (PRISM viability) (NCIH1048_LUNG): 0.6373
- AUC (PRISM viability) (NCIH1092_LUNG): 0.3222
- AUC (PRISM viability) (NCIH1299_LUNG): 0.4354
- PRISM AUC (NCIH1339_LUNG): 0.4553
- AUC (PRISM viability) (NCIH1341_LUNG): 0.5477
- PRISM AUC (NCIH1355_LUNG): 0.4521
- PRISM AUC (NCIH1373_LUNG): 0.3791
- AUC (PRISM viability) (NCIH1435_LUNG): 0.8637
- AUC (PRISM viability) (NCIH1437_LUNG): 0.5969
- AUC (PRISM viability) (NCIH1563_LUNG): 0.6189
- AUC (PRISM viability) (NCIH1568_LUNG): 0.6734
- AUC (PRISM viability) (NCIH1581_LUNG): 0.9998
- AUC (PRISM viability) (NCIH1648_LUNG): 0.2199
- AUC (PRISM viability) (NCIH1650_LUNG): 0.6245
- AUC (PRISM viability) (NCIH1651_LUNG): 0.8871
- AUC (PRISM viability) (NCIH1693_LUNG): 0.8183
- AUC (PRISM viability) (NCIH1694_LUNG): 0.5791
- AUC (PRISM viability) (NCIH1703_LUNG): 0.6825
- PRISM AUC (NCIH1792_LUNG): 0.2139
- AUC (PRISM viability) (NCIH1793_LUNG): 0.6312
- AUC (PRISM viability) (NCIH1838_LUNG): 0.5855
- AUC (PRISM viability) (NCIH1915_LUNG): 0.641
- PRISM AUC (NCIH1944_LUNG): 0.5331
- AUC (PRISM viability) (NCIH1975_LUNG): 0.5382
- AUC (PRISM viability) (NCIH2023_LUNG): 0.5354
- AUC (PRISM viability) (NCIH2087_LUNG): 0.3287
- AUC (PRISM viability) (NCIH2110_LUNG): 0.5875
- PRISM AUC (NCIH2122_LUNG): 0.1883
- AUC (PRISM viability) (NCIH2126_LUNG): 0.6292
- AUC (PRISM viability) (NCIH2170_LUNG): 0.6244
- AUC (PRISM viability) (NCIH2171_LUNG): 0.8542
- AUC (PRISM viability) (NCIH2172_LUNG): 0.765
- AUC (PRISM viability) (NCIH2228_LUNG): 0.4232
- PRISM AUC (NCIH2444_LUNG): 0.2818
- AUC (PRISM viability) (NCIH2452_PLEURA): 1
- AUC (PRISM viability) (NCIN87_STOMACH): 0.7465
- AUC (PRISM viability) (NCO2_HAEMATOPOIETIC_AND_LYMPHOID_TISSUE): 0.625
- AUC (PRISM viability) (NIHOVCAR3_OVARY): 0.7506
- PRISM AUC (NOMO1_HAEMATOPOIETIC_AND_LYMPHOID_TISSUE): 0.4639
- AUC (PRISM viability) (NUGC3_STOMACH): 0.3156
- AUC (PRISM viability) (NUGC4_STOMACH): 0.304
- AUC (PRISM viability) (OAW42_OVARY): 0.7122
- AUC (PRISM viability) (OC314_OVARY): 0.7084
- AUC (PRISM viability) (OC316_OVARY): 0.6527
- AUC (PRISM viability) (OCIAML2_HAEMATOPOIETIC_AND_LYMPHOID_TISSUE): 0.8145
- AUC (PRISM viability) (OCIAML3_HAEMATOPOIETIC_AND_LYMPHOID_TISSUE): 0.162
- AUC (PRISM viability) (OCILY3_HAEMATOPOIETIC_AND_LYMPHOID_TISSUE): 0.7702
- AUC (PRISM viability) (OCIM1_HAEMATOPOIETIC_AND_LYMPHOID_TISSUE): 0.5554
- AUC (PRISM viability) (OE19_OESOPHAGUS): 0.4503
- AUC (PRISM viability) (OE21_OESOPHAGUS): 0.4077
- AUC (PRISM viability) (OE33_OESOPHAGUS): 0.4516
- AUC (PRISM viability) (ONCODG1_OVARY): 0.8342
- AUC (PRISM viability) (ONS76_CENTRAL_NERVOUS_SYSTEM): 0.1792
- AUC (PRISM viability) (OSRC2_KIDNEY): 0.7371
- AUC (PRISM viability) (OUMS23_LARGE_INTESTINE): 0.9107
- PRISM AUC (OV7_OVARY): 0.3327
- PRISM AUC (OV56_OVARY): 0.6812
- AUC (PRISM viability) (OVISE_OVARY): 0.7216
- AUC (PRISM viability) (OVKATE_OVARY): 0.7188
- AUC (PRISM viability) (OVTOKO_OVARY): 0.7297
- AUC (PRISM viability) (P12ICHIKAWA_HAEMATOPOIETIC_AND_LYMPHOID_TISSUE): 0.1917
- PRISM AUC (PANC1_PANCREAS): 0.7301
- PRISM AUC (PANC0203_PANCREAS): 0.1549
- PRISM AUC (PANC0327_PANCREAS): 0.3885
- PRISM AUC (PANC0403_PANCREAS): 0.1969
- PRISM AUC (PANC0504_PANCREAS): 0.2677
- PRISM AUC (PANC0813_PANCREAS): 0.6012
- PRISM AUC (PANC1005_PANCREAS): 0.492
- PRISM AUC (PATU8902_PANCREAS): 0.2883
- PRISM AUC (PATU8988S_PANCREAS): 0.2608
- PRISM AUC (PATU8988T_PANCREAS): 0.5033
- AUC (PRISM viability) (PC3_PROSTATE): 0.7599
- AUC (PRISM viability) (PC14_LUNG): 0.4618
- AUC (PRISM viability) (PECAPJ15_UPPER_AERODIGESTIVE_TRACT): 0.4843
- AUC (PRISM viability) (PECAPJ41CLONED2_UPPER_AERODIGESTIVE_TRACT): 0.3318
- AUC (PRISM viability) (PECAPJ49_UPPER_AERODIGESTIVE_TRACT): 0.2883
- AUC (PRISM viability) (PF382_HAEMATOPOIETIC_AND_LYMPHOID_TISSUE): 0.3397
- PRISM AUC (PK1_PANCREAS): 0.3834
- PRISM AUC (PK45H_PANCREAS): 0.5023
- PRISM AUC (PK59_PANCREAS): 0.2749
- AUC (PRISM viability) (PLCPRF5_LIVER): 0.7216
- PRISM AUC (PSN1_PANCREAS): 0.12
- PRISM AUC (QGP1_PANCREAS): 0.3907
- AUC (PRISM viability) (RCC10RGB_KIDNEY): 0.7484
- PRISM AUC (RCM1_LARGE_INTESTINE): 0.1259
- AUC (PRISM viability) (RDES_BONE): 0.7616
- AUC (PRISM viability) (RD_SOFT_TISSUE): 0.207
- AUC (PRISM viability) (RERFGC1B_STOMACH): 0.5427
- PRISM AUC (RERFLCAD2_LUNG): 0.4067
- AUC (PRISM viability) (RERFLCAI_LUNG): 0.6094
- AUC (PRISM viability) (RERFLCKJ_LUNG): 0.8949
- AUC (PRISM viability) (RERFLCMS_LUNG): 0.7953
- AUC (PRISM viability) (RH30_SOFT_TISSUE): 0.6971
- AUC (PRISM viability) (RI1_HAEMATOPOIETIC_AND_LYMPHOID_TISSUE): 0.7681
- PRISM AUC (RKN_SOFT_TISSUE): 0.1266
- AUC (PRISM viability) (RKO_LARGE_INTESTINE): 0.9515
- AUC (PRISM viability) (RL952_ENDOMETRIUM): 0.342
- AUC (PRISM viability) (RL_HAEMATOPOIETIC_AND_LYMPHOID_TISSUE): 0.7851
- AUC (PRISM viability) (RMGI_OVARY): 0.5297
- AUC (PRISM viability) (RMUGS_OVARY): 0.8312
- AUC (PRISM viability) (RPMI7951_SKIN): 0.9756
- AUC (PRISM viability) (RPMI8402_HAEMATOPOIETIC_AND_LYMPHOID_TISSUE): 0.7828
- AUC (PRISM viability) (RT4_URINARY_TRACT): 0.5133
- AUC (PRISM viability) (RT112_URINARY_TRACT): 0.1516
- AUC (PRISM viability) (RVH421_SKIN): 0.8566
- AUC (PRISM viability) (SBC5_LUNG): 0.6474
- AUC (PRISM viability) (SCABER_URINARY_TRACT): 0.3752
- AUC (PRISM viability) (SCC9_UPPER_AERODIGESTIVE_TRACT): 0.5257
